Measured values published in publication PMC6361841, “Repurposing of Drugs as Novel Influenza Inhibitors From Clinical Gene Expression Infection Signatures” (Frontiers in Immunology, 2019).

Tests used:
[1] = system: A/Lyon/969/2009 H275Y (H1N1); format: cell-based, influenza virus
[2] = system: influenza A/Lyon/969/09 (H1N1)pdm09 virus; format: cell-based; details: basolateral medium replaced with fresh medium without drugs

COc1ccc([C@@H]2Sc3ccccc3N(CCN(C)C)C(=O)[C@@H]2OC(C)=O)cc1 [Diltiazem]
Viral titer [1]: 2.8 log TCID50/ml | Reversibility of inhibitory and protective properties [2]: progressively reversible

CCNCC(O)c1cccc(O)c1 (stereo not drawn) [Etilefrine]
Viral titer [1]: 2.8 log TCID50/ml
